Data: patent US20230172914A1, “BIOMARKER-BASED THERAPEUTIC COMPOSITION” (WELLMARKER BIO CO., LTD., priority 2019, published 2023)
Counter-ions that a name gives are not always drawn.

Columns and labels:
[1] = tested on: MKN45 cell line (cell line expressing active RON); test: Cell growth inhibition MTS assay on MKN45; type: cell-based; conditions: Homo sapiens, MKN-45, 48 hours, read-out: Growth inhibitory capacity on MKN45 cells, IC50
Method: MTS assay was performed to identify whether the compound according to the present invention has a cancer cell proliferation inhibitory effect through inhibition of extracellular signal-regulated kinase activity.
The following assay was performed on MKN45 cell line (cell line expressing active RON), a human gastric cancer cell line. The MKN45 cell line was dispensed at a concentration of 5,000 cells/well in a 96-well plate containing RPMI-1640 medium (Gibco, Invitrogen) containing 10% FBS, and then the plate was incubated for 24 hours at a condition of 5% CO2 and 37° C. Then, the respective wells were subjected to treatment with the compounds prepared in the examples, each of which was sequentially diluted from its high concentration of 10 μM. For a solvent control, the respective wells were subjected to treatment with dimethyl sulfoxide (DMSO) at the same concentrations (% (v/v)) to those used for the treatment with the compounds. Then, the respective cells were incubated for 48 hours.
In order to identify degree of viability of the cells, a mixture of MTS and phenazine methosulfate (PMS) provided in CellTiter 96 AQuous Non-Radioactive Cell Proliferation Assay Kit (Promega) was added to each cultured cell medium. Additional incubation was performed at a condition of 37° C. for 2 hours and 30 minutes. Then, absorbance was measured at 490 nm. […] In the following, A represents <10 nM, B represents 10 to 50 nM, and C represents >50 nM.

RON enzyme = RON enzyme (Homo sapiens, UniProt Q04912); test: RON activity inhibition assay (ADP-Glo); type: biochemical; conditions: 50 uM ATP, G4Y1 peptide substrate
RON enzyme, sequence (Q04912 25-1400): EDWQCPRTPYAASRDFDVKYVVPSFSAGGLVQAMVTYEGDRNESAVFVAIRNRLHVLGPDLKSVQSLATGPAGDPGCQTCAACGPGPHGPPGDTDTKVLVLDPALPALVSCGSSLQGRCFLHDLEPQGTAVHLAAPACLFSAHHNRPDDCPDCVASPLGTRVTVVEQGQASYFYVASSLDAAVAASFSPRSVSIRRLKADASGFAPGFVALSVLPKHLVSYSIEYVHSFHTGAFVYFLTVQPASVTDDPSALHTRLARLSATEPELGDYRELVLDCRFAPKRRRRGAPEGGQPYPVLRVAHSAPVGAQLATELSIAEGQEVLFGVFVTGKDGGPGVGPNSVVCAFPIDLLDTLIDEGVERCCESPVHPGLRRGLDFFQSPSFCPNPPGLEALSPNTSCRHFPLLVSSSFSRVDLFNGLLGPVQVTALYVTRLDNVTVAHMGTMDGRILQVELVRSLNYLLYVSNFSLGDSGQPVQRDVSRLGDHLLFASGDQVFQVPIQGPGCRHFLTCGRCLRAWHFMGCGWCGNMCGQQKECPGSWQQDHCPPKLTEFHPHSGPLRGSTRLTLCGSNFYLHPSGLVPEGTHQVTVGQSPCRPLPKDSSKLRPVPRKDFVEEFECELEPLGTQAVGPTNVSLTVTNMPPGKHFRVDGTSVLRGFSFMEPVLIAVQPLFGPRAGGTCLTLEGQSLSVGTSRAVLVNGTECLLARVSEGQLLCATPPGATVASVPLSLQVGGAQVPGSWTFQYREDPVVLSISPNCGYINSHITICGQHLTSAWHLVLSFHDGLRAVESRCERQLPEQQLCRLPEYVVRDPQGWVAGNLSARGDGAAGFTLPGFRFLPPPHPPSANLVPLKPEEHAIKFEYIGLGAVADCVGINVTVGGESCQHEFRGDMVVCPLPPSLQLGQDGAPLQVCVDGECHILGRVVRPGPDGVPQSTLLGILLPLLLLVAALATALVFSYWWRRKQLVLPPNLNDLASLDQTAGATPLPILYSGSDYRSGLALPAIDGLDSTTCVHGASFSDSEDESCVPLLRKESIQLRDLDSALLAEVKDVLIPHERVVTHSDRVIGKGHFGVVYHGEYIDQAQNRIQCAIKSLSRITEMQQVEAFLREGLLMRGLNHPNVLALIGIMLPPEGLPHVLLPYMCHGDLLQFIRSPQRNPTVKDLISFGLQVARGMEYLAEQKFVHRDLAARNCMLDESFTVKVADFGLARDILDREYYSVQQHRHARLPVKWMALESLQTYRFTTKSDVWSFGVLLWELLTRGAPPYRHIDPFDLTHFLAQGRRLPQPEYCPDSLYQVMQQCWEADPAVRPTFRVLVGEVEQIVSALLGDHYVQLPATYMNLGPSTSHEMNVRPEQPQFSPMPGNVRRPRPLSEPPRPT
Method: Enzymatic reaction was allowed to proceed using 2 ng/uL of 250 uM G4Y1 peptide, which serves as a substrate for RON enzyme, and 50 uM ATP in assay buffer (40 mM Tris-HCl, pH 7.5, 20 mM MgCl2, 0.1 mg/mL bovine serum albumin, 50 uM DTT). The resultant was subjected to treatment with the compounds prepared in the examples and the comparative examples at various concentrations, and reaction was allowed to proceed at room temperature for 1 hour. Then, ADP-Glo™ Reagent and Kinase Detection Reagent were sequentially added thereto, and reaction was allowed to proceed at room temperature for 40 minutes and 30 minutes, respectively.
Subsequently, luminescence was measured using Wallaac Victor 2TM (PerkinElmer Life Sciences, 1420-042). Data were analyzed with the measured RLU values to verify activity of the RON inhibitors. The RLU value of a sample which was not treated with the compound was set as a 100% control, and the activity of the RON inhibitor was evaluated as a percentage of residual activity of the RON enzyme in the sample that was treated with the compound at the concentration to be tested.

[2] = tested on: colon cancer patient tissue (active RON/RON mutant #1: Δ160); test: Efficacy in animal model transplanted with colon cancer patient tissue, 30 mpk; type: in vivo; conditions: 30 mpk for 4 weeks
Method: Example 18 and Comparative Example 1 were administered to an animal model transplanted with the same patient tissue (active RON/RON mutant #1: Δ160) cells as in the animal model transplanted with colon cancer patient tissue tumor cells at 30 mpk for 4 weeks. […] The lower pictures of FIG. 21 show tumors extracted from representative individuals of the respective groups.

KM12C cell line tumor = test: Efficacy in animal model transplanted with KM12C, 30 and 50 mpk (Experimental Example 11); type: in vivo, BALB/c nude mice; conditions: once a day for 2 weeks
Method: 5-Week-old female BALB/c nude mice were purchased and acclimatized for 1 week. Then, human-derived colon cancer cell line KM12C (1.5×10^6 cells/mice) was diluted in PBS, and injected subcutaneously (100 μl) into the right dorsal side of the mice. Comparative Examples 1 and Example 18 were orally administered when the tumor reached a size of about 100 mm^3. The drug was administered at 30 mpk and 50 mpk once a day for 2 weeks, and tumor size and body weight were measured twice a week. […] After completion of the drug administration, the experimental animals were euthanized, and then the tumors were extracted and weighed to perform comparative analysis.

Colo320HSR (RON-) = test: Cell death-inducing ability, trypan blue exclusion, Colo320HSR; type: cell-based; conditions: 48 hours
Method: (§1) The cell death-inducing ability of Example 18 and Comparative Example 1 was measured in KM12C with RON mutant (Δ160), a cetuximab-resistant cell line, and Colo320HSR cell line, a cell line not expressing RON. The two colon cancer cell lines were seeded, respectively, onto 60-mm plates at 2×10^5 cells. Then, after 24 hours, while performing medium exchange, the cells were subjected to treatment with the sample compounds at respective concentrations (1 μM, 5 μM) for 48 hours. After 48 hours, the cells and cell suspensions were collected (1,500 rpm, 3 minutes), and live cells and dead cells were quantitated (n=2) through trypan blue (15250-061, Gibco) exclusion assay.

KM12C (RONΔ160) [3] = test: Cell death-inducing ability, trypan blue exclusion, KM12C; type: cell-based, human; conditions: 48 hours
Method: as §1

KM12C (RONΔ160) [4] = test: MTS assay KM12C (Experimental Example 6); type: cell-based; conditions: Homo sapiens, 72 hours
Method: In MTS assay for Example 18 and Comparative Example 1, KM12C cell line was seeded at 1,000 cells per well into 96-well plates. After 24 hours, the cells were treated with various concentrations (0.000001 uM to 10 uM) of Example 18 and Comparative Example 1 in 100 ul of 10% FBS-MEM medium (Welgene) per well. Subsequently, the cells were incubated for 72 hours. Then, 20 μl of MTS solution (Promega) was added thereto, and incubation was performed for 2 hours. Then, the absorbance was measured at 490 nm. The IC50 values for Example 18 and Comparative Example 1 were calculated using GraphPad Prism™ 5 to investigate cytotoxicity.

Row | SMILES | IC50 [1] [nM] | other results
1 | CCOc1ccn(-c2ccc(F)cc2)c(=O)c1C(=O)Nc1ccc(Oc2ccnc3cc(-c4nccn4C)sc23)c(F)c1 [Example 3, 4-ethoxy-N-(3-fluoro-4-(2-(1-methyl-1H-imidazol-2-yl)thieno[3,2-b]pyridine-7-yloxy)phenyl)-1-(4-fluorophenyl)-2-oxo-1,2-dihydropyridine-3-carboxamide] | 10 to 50 | –
2 | CCOc1ccn(-c2ccc(F)cc2)c(=O)c1C(=O)Nc1ccc(Oc2ccnc3cc(-c4ccccn4)sc23)c(F)c1 [Example 5, 4-ethoxy-N-(3-fluoro-4-(2-(pyridin-2-yl)thieno[3,2-b]pyridin-7-yloxy)phenyl)-1-(4-fluorophenyl)-2-oxo-1,2-dihydropyridine-3-carboxamide] | 10 to 50 | IC50 (RON enzyme): 8.8 nM
3 | CCOc1ccn(-c2ccc(F)cc2)c(=O)c1C(=O)Nc1ccc(Oc2ccnc(N)c2Cl)c(F)c1 [Comparative Example 1, N-{4-[(2-amino-3-chloro-4-pyridinyl)oxy]-3-fluorophenyl}-4-ethoxy-1-(4-fluorophenyl)-2-oxo-1,2-dihydro-3-pyridinecarboxamide, reference compound] | – | tumor growth inhibition efficacy [2]: about 18%; TGI (%) (KM12C cell line tumor; 30 mg/kg oral): 82.4%; TGI (%) (KM12C cell line tumor; 50 mg/kg oral): 83.7%; tumor growth inhibition efficacy (KM12C cell line tumor; 30 mpk and 50 mpk oral): very high tumor growth inhibition efficacy; Cell death, Colo320HSR (RON-) (Colo320HSR (RON-); 1 μM): 5.9; Cell death, Colo320HSR (RON-) (Colo320HSR (RON-); 5 μM): 8.2; Cell death, KM12C (RONΔ160) (KM12C (RONΔ160) [3]; 1 μM): 11.7; Cell death, KM12C (RONΔ160) (KM12C (RONΔ160) [3]; 5 μM): 21.1; IC50 (KM12C (RONΔ160) [4]): 358 nM
4 | CCOc1ccn(-c2ccc(F)cc2)c(=O)c1C(=O)Nc1ccc(Oc2ccnc3cc(-c4cnn(C)c4)sc23)c(F)c1 [Example 4, 4-ethoxy-N-(3-fluoro-4-(2-(1-methyl-1H-pyrazol-4-yl)thieno[3,2-b]pyridine-7-yloxy)phenyl)-1-(4-fluorophenyl)-2-oxo-1,2-dihydropyridine-3-carboxamide] | 10 to 50 | –
5 | CCOc1ccn(-c2ccc(F)cc2)c(=O)c1C(=O)Nc1ccc(Oc2ccnc3cc(-c4cccnc4)sc23)c(F)c1 [Example 6, 4-ethoxy-N-(3-fluoro-4-(2-(pyridin-3-yl)thieno[3,2-b]pyridin-7-yloxy)phenyl)-1-(4-fluorophenyl)-2-oxo-1,2-dihydropyridine-3-carboxamide] | 10 to 50 | –
6 | CCOc1ccn(C)c(=O)c1C(=O)Nc1ccc(Oc2ccnc3cc(-c4cn(C)cn4)sc23)c(F)c1 [Example 2, 4-ethoxy-N-(3-fluoro-4-(2-(1-methyl-1H-imidazol-4-yl)thieno[3,2-b]pyridine-7-yloxy)phenyl)-1-methyl-2-oxo-1,2-dihydropyridine-3-carboxamide] | > 50 | –
7 | CCOc1ccn(-c2ccc(F)cc2)c(=O)c1C(=O)Nc1ccc(Oc2ccnc3cc(-c4cn(C)cn4)sc23)c(F)c1 [Example 1, 4-ethoxy-N-(3-fluoro-4-(2-(1-methyl-1H-imidazol-4-yl)thieno[3,2-b]pyridine-7-yloxy)phenyl)-1-(4-fluorophenyl)-2-oxo-1,2-dihydropyridine-3-carboxamide] | < 10 | IC50 (RON enzyme): 11.1 nM

Second part, led by results:

Row | IC50 [1] [nM] | SMILES | other results
8 | > 50 | CCOc1ccn(Cc2ccc(F)cc2)c(=O)c1C(=O)Nc1ccc(Oc2ccnc3cc(-c4cn(CC)cn4)sc23)c(F)c1 [Example 8, 4-ethoxy-N-(4-(2-(1-ethyl-1H-imidazol-4-yl)thieno[3,2-b]pyridin-7-yloxy)-3-fluorophenyl)-1-(4-fluorobenzyl)-2-oxo-1,2-dihydropyridine-3-carboxamide] | –
9 | 10 to 50 | COCn1cnc(-c2cc3nccc(Oc4ccc(NC(=O)c5c(OC)ccn(-c6ccccc6)c5=O)cc4F)c3s2)c1 [Example 9, 4-methoxy-N-(3-fluoro-4-(2-(1-(methoxymethyl)-1H-imidazol-4-yl)thieno[3,2-b]pyridin-7-yloxy)phenyl)-1-phenyl-2-oxo-1,2-dihydropyridine-3-carboxamide] | –
10 | > 50 | CCOc1ccn(-c2ccc(F)cc2)c(=O)c1C(=O)Nc1ccc(Oc2ccnc3cc(CN4CCN(C)CC4)sc23)c(F)c1 [Example 11, 4-ethoxy-N-(3-fluoro-4-(2-((4-methylpiperazin-1-yl)methyl)thieno[3,2-b]pyridine-7-yloxy)phenyl)-1-(4-fluorophenyl)-2-oxo-1,2-dihydropyridine-3-carboxamide] | –
11 | > 50 | CCOc1ccn(-c2ccc(F)cc2)c(=O)c1C(=O)Nc1ccc(Oc2ccnc3cc(CN4CCNCC4)sc23)c(F)c1 [Example 10, 4-ethoxy-N-(3-fluoro-4-(2-(piperazin-1-ylmethyl)thieno[3,2-b]pyridin-7-yloxy)phenyl)-1-(4-fluorophenyl)-2-oxo-1,2-dihydropyridine-3-carboxamide hydrochloride] | –
12 | > 50 | CCOc1ccn(-c2ccc(F)cc2)c(=O)c1C(=O)Nc1ccc(Oc2ccnc3cc(-c4nccs4)sc23)c(F)c1 [Example 7, 4-ethoxy-N-(3-fluoro-4-(2-(thiazol-2-yl)thieno[3,2-b]pyridin-7-yloxy)phenyl)-1-(4-fluorophenyl)-2-oxo-1,2-dihydropyridine-3-carboxamide] | –
